# Reference: US9045505B2, “Nitric oxide donors” (University of Otago, priority 2006, dated 2015)
# Experiments:
# HeLa cells = assay: Cell hypoxia experiment, extracellular pO2 by fluorescence quenching oximetry; type: cell-based; details: 1% O2, 30 min incubation, compared to untreated controls
# Procedure: FIG. 10 is a series of traces and graphs showing the effect of MitoSNAP on respiration in cells. (a-d) Jurkat cells (55×10^6 cells) were incubated in PBS supplemented with 25 mM Hepes pH 7.2 (NaOH), 1 mM sodium pyruvate, 10 μM neocuproine and 100 μM DTPA in the stirred 2.5 ml chamber of an oxygen electrode at 37° C. with 5 μM MitoSNAP (a), MitoNAP (b), SNAP (c) or MitoSNAP and FCCP (500 nM) (d). Where indicated 5 μM OxyHb was added. Traces show typical experiments that were repeated at least three times. Sections of the 02 electrode trace where OxyHb was added for (a) and (b) have been expanded 4-fold in the vertical dimension to facilitate inspection. […] Cellular pO2 values, measured by fluorescence quenching oximetry and expressed as mean±sd, are shown. […]
# HeLa cells were seeded and grown to 100% confluence with 15 ml medium/dish on 165 cm^2 dishes. […] Extracellular pO2 measurements were taken by fluorescence quenching oximetry (Oxylite-2000; Oxford Optronix). […]
# To evaluate the selective uptake of MitoSNAP by mitochondria within cells, the effect of MitoSNAP on respiration by Jurkat cells, a T lymphocyte cell line that grows in suspension, was measured using an O2 electrode (FIG. 10). […] Then the effects of a further 30 min incubation with MitoSNAP, MitoNAP or the mitochondrial inhibitor myxathiazol on the steady-state extracellular pO2 was assessed by fluorescence quenching oximetry (FIG. 10e).
# liver mitochondria = assay: Exposed protein thiols, glutathionylation and GSH/GSSG in liver mitochondria; type: biochemical, rat
# Procedure: Mitochondrial incubations were usually in KCl buffer (120 mM KCl, 10 mM HEPES, 1 mM EGTA, 100 μM N,N-bis(2-bis[carboxymethyl]aminoethyl) glycine (DTPA) and 10 μM neocuproine, pH 7.2) with 10 mM succinate and 4 μg/ml rotenone in the dark at 37° C., unless stated otherwise. An electrode selective for the TPP moiety of MitoSNAP and MitoNAP was made and used as described previously (Asin-Cayuela, J., Manas, A. R., James, A. M., Smith, R. A. & Murphy, M. P. Fine-tuning the hydrophobicity of a mitochondria-targeted antioxidant. FEBS Letts. 571, 9-16 (2004)). Respiration rates were measured in a Clark type O2 electrode (Rank Brothers, UK). To measure GSH and GSSG, mitochondria (1 mg protein/ml) were incubated with 0-10 μM MitoSNO1 or MitoNAP for 10 min, pelleted by centrifugation and the GSH and GSSG contents assessed by the recycling assay (Scarlett, J. L., Packer, M. A., Porteous, C. M. & Murphy, M. P. Alterations to glutathione and nicotinamide nucleotides during the mitochondrial permeability transition induced by peroxynitrite. Biochem. Pharmacol. 52, 1047-1055 (1996)). The measurement of exposed mitochondrial protein thiols is described below.
# Small molecules were removed by centrifugation through MicroBioSpin Columns (cut off=6 kDa), the eluate was clarified by centrifugation (2 min at 10,000×g) and protein thiols measured in triplicate by mixing 10 μl sample or GSH standard with 160 μl of 200 μM dithionitrobenzoic acid (DTNB) in 80 mM NaPi, 1 mM EDTA, pH 8 in a 96 well plate and absorbance at 412 nm was measured after 30 min at room temperature and the thiol content determined from the GSH standard curve. The protein concentration was measured in parallel by the bicinchonininc assay using BSA as a standard.
# The interaction of MitoSNAP with mitochondrial thiol proteins is likely to initiate a dynamic process that may lead to other protein thiol modifications, such as disulfide formation, glutathionylation, sulfenylation or sulfenylamide formation, in addition to persistent S-nitrosation. To assess these, the content of reactive, solvent-exposed thiols on native liver mitochondrial proteins was measured. […] This is consistent with the finding that the maximum extent of mitochondrial protein S-nitrosation by 5 μM MitoSNAP (˜500 pmol SNO/mg protein; FIG. 11) was only ˜1% of the total number of protein thiols available. A small amount of MitoSNAP binding to mitochondrial thiol proteins through the formation of mixed disulfides was detectable by immunoblotting.
smiles,measurement,setting,value
"CC(=O)NC(C(=O)NCCCCC[P+](c1ccccc1)(c1ccccc1)c1ccccc1)C(C)(C)SN=O.CS(=O)(=O)[O-] (stereo not shown) [MitoSNAP, [5-(2-acetylamino-3-methyl-3-nitrosothio-butyrylamino)-penty1]-triphenylphosphonium methanesulfonate]",effect on steady-state extracellular pO2 during hypoxia,HeLa cells,increased extracellular O2
same,"reactive, solvent-exposed thiols on native liver mitochondrial proteins","liver mitochondria; 5 μM, 5 min, mean±sem, n=3",46.7±9.6 nmol thiols/mg protein
same,GSH and GSSG content of mitochondria,"liver mitochondria; 10 μM, 10 min",no loss of GSH or accumulation of GSSG
same,protein-glutathione mixed disulfides (glutathionylation),"liver mitochondria; mitochondria, MitoSNAP 5 μM",not detectable
